# Data from paper PMC7394103 (Frontiers in Pharmacology, 2020).
# Experiments:
# CIA in DBA1/J mice = assay: Collagen-induced arthritis (CIA), clinical score and histopathology; assay type: in vivo; conditions: 30 mg/kg i.p. daily; for CIA joint histopathology: day 8 to 42, vs saline; for CIA symptoms (clinical score): day 8 to 42, vs vehicle
# Experimental: DBA1/J male mice (6–8 weeks) were obtained from The Jackson Laboratories (Bar Harbor, ME, USA). All animal experiments were performed in accordance with National Institutes of Health guidelines and approved by the Montana State University Institutional Animal Care and Use Committee.
# To induce CIA in DBA1/J mice, immunization-grade bovine Type II collagen (CII) (Chondrex, Redmond, WA, USA) was solubilized in 0.05 M acetic acid (2 mg/ml), and 100 μg of CII emulsified in complete Freund’s adjuvant containing 4 mg/ml Mycobacterium tuberculosis (Chondrex) were injected subcutaneously (s.c.) in the tail ([Kochetkova et al., 2010]).
# Mice were scored using a scale of 0 to 3 for each limb, with a maximal total score of 12, as previously described ([Schepetkin et al., 2015]): 0, no signs of inflammation; 1, mild redness or swelling of single digits; 2, significant swelling of ankle or wrist with erythema; and 3, severe swelling and erythema of multiple joints.
# At 44 days after CII injection (CIA) or 14 days after anti-CII antibody injection (CAIA), the mice were euthanized, and their hind limbs were collected and fixed in 10% neutral buffered formalin. The limbs were decalcified in 5% formic acid for 3 to 6 days, and the joints were embedded in paraffin. Eight 8-μm sections were cut using a sagittal projection with 40 µm spacing of the cuts. Hematoxylin and eosin (H&E) and toluidine blue (TB) staining were performed for each sample.
# H&E histopathological scores for the joints were determined by using a graded scale ([Schramm et al., 2004]), separately for cartilage destruction, pannus formation, and synovial cells changes. For cartilage destruction, the scale was: 0—normal, superficial zone is smooth; 1—superficial fibrillations, some loss of surface lamina; 2—vertical clefts/erosion to the calcified cartilage up to 25% of the surface; 3—vertical clefts/erosion to the calcified cartilage more than 25% of the surface, severe chondrocytes, and cartilage matrix loss with new bone tissue substitution, bone destruction. […] All sections of the hind paws and knee joints were examined, the highest score was recorded, with a total maximum score of 36 possible per mouse. The loss of the proteoglycans and cartilage degeneration was also scored in TB-stained sections on a graded scale of 0–3, as previously described ([Bernotiene et al., 2004]): 0—no cartilage loss; 1 – minimal chondrocytes and proteoglycan loss in superficial zone; 2—moderate chondrocytes and proteoglycan loss into middle zone but above tidemark; and 3—severe cartilage degeneration through tidemark, with the maximum score of 12 possible per mouse.
# LN cells from CIA mice = assay: CII-induced cytokine production by LN cells from treated CIA mice; assay type: in vivo; conditions: 30 mg/kg; for IL-10 production by LN cells / proinflammatory cytokines (IL-1β, IL-5, IL-6, IL-17A, TNF, GM-CSF, RANKL) by LN cells: cells cultured 72 h with CII, vs saline
# Experimental: At the end of the study (day 44), we isolated the axillary, inguinal, and popliteal LN and purified mononuclear cells from the LN. These cells were cultured in 6-well plates (5 × 10^6 cells/ml) without or with 50 μg/ml CII for 3 days in RPMI-1640 medium supplemented with 10% of fetal bovine serum (FBS) (Invitrogen, Carlsbad, CA, USA), 2 mM l-glutamine, 100 U/ml penicillin, 100 μg/ml streptomycin, 1 mM sodium pyruvate, and 0.1 mM nonessential amino acids ([Kochetkova et al., 2008]). The levels of cytokines, including tumor necrosis factor (TNF), granulocyte-macrophage colony-stimulating factor (GM-CSF), IL-1β, IL-5, IL-6, IL-10, IL-17A, and receptor activator of nuclear factor-κB ligand (RANKL) were measured in LN culture supernatants using ELISA kits (BD Biosciences, San Jose, CA, USA) for mouse cytokines.
# [1] = test system: IL-6 secretion by synovial SW982 cells; assay: IL-1β-induced IL-6 secretion by SW982 cells (ELISA); assay type: cell-based, human; conditions: for IC50: Homo sapiens, SW982, 30 min compound, then 5 ng/ml IL-1β, 24 h, read-out: SW982 IL-6 IC50
# Experimental: FLS, HUVEC, SW982, and THP-1 cells were plated in 96 well plates (10^4 to 10^5 cells/well) for 48 h before treatment. At 2 days post-confluency, the cells were serum-starved and washed twice (with the exception of THP-1 cell, which were not washed) with FBS-free medium prior to the addition of test compounds. […] Culture supernatants were collected and stored at –80°C. The levels of MMP-1 and MMP-3 were determined in culture supernatants using commercially available ELISA kits according to the manufacturer’s instructions (R&D System, Minneapolis, MN, USA). IL-6 levels were also determined in the supernatants using a human IL-6 ELISA kit (BD Biosciences, San Jose, CA, USA).
# [2] = test system: MMP-1 secretion by SW982 cells; assay: IL-1β-induced MMP-1 secretion by SW982 cells (ELISA); assay type: cell-based; conditions: Homo sapiens, 30 min compound, then 5 ng/ml IL-1β, 24 h, read-out: SW-982 MMP-1 IC50
# Experimental: FLS, HUVEC, SW982, and THP-1 cells were plated in 96 well plates (10^4 to 10^5 cells/well) for 48 h before treatment. At 2 days post-confluency, the cells were serum-starved and washed twice (with the exception of THP-1 cell, which were not washed) with FBS-free medium prior to the addition of test compounds. The cells were incubated in the presence or absence of test compounds or DMSO (vehicle control) for 30 min at 37°C in a 5% CO2 atmosphere, IL-1β (5 ng/ml) was added, and the cells were incubated for an additional 24 h. Culture supernatants were collected and stored at –80°C. The levels of MMP-1 and MMP-3 were determined in culture supernatants using commercially available ELISA kits according to the manufacturer’s instructions (R&D System, Minneapolis, MN, USA). IL-6 levels were also determined in the supernatants using a human IL-6 ELISA kit (BD Biosciences, San Jose, CA, USA).
# [3] = test system: MMP3 gene expression in FLS; assay: MMP3 gene expression in IL-1β-stimulated FLS (qPCR); assay type: cell-based, human; conditions: 4, 10, 25 µM, 1 h before IL-1β (2 ng/ml) for 6 h, vs vehicle
# Experimental: For MMP mRNA analysis, FLS were plated in six-well plates, cultured until 80% confluence, and subsequently serum starved (1% FBS/DMEM) for 24 h. […] The mRNA was isolated and reverse transcribed to obtain cDNA. Quantitative real-time polymerase chain reaction was performed using primer probe sets for MMP3 and glyceraldehyde 3-phosphate dehydrogenase (GAPDH) (Life Technologies). Threshold cycle values were obtained and normalized to GAPDH expression.
SMILES,CIA joint histopathology (CIA in DBA1/J mice),CIA symptoms (clinical score) (CIA in DBA1/J mice),IL-10 production by LN cells (LN cells from CIA mice),"proinflammatory cytokines (IL-1β, IL-5, IL-6, IL-17A, TNF, GM-CSF, RANKL) by LN cells (LN cells from CIA mice)","overall inhibition of IL-6 secretion in combination with SP600125 ([1]; 5 µM TRYP plus SP600125, compared to SP600125 alone)",IC50 [1],IC50 [2],MMP3 mRNA levels [3],"IL-17A, GM-CSF and RANKL production by LN cells (LN cells from CIA mice; compared to mice treated with TRYP)"
"O=C1c2ccccc2-n2c1nc1ccccc1c2=O [TRYP, indolo[2,1-b]quinazolin-6,12-dione]","little cartilage erosion, synovial hyperplasia, or cellular infiltration",significant reductions in CIA symptoms,higher,significantly reduced,acted synergistically,2500 ± 1100 nM,7800 ± 2000 nM,dose-dependent reduction,
"O=c1c2ccccc2nc2n1-c1ccccc1/C2=N/O [TRYP-Ox, tryptanthrin-6-oxime]","little cartilage erosion, synovial hyperplasia, or cellular infiltration",significant reductions in CIA symptoms,higher,significantly reduced,,400 ± 200 nM,2600 ± 800 nM,dose-dependent reduction,significantly lower
